These results are taken from patent US10550105B2 (Ribon Therapeutics Inc., priority 2018, dated 2020).

SMILES strings stand for the structures.

For this assay, the target named is PARP7 (Homo sapiens (Human), UniProt Q7Z3E1). The assay is described as follows: Enzymatic assay for inhibition of PARP7: TR-FRET displacement of biotinylated Probe A from the TIPARP active site. In kind it is binding. As to conditions: Table A-1. In a few lines: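 Compounds were tested as dose-response series, and reactions were incubated a further 30 min at 25° C. TR-FRET was read at 320 nm excitation with 615 and 665 nm emission after a 90 μs delay. The 665/615 ratio gave the TIPARP–Probe A complex, and % inhibition was fitted against concentration.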
PARP7, sequence (Q7Z3E1 whole entry): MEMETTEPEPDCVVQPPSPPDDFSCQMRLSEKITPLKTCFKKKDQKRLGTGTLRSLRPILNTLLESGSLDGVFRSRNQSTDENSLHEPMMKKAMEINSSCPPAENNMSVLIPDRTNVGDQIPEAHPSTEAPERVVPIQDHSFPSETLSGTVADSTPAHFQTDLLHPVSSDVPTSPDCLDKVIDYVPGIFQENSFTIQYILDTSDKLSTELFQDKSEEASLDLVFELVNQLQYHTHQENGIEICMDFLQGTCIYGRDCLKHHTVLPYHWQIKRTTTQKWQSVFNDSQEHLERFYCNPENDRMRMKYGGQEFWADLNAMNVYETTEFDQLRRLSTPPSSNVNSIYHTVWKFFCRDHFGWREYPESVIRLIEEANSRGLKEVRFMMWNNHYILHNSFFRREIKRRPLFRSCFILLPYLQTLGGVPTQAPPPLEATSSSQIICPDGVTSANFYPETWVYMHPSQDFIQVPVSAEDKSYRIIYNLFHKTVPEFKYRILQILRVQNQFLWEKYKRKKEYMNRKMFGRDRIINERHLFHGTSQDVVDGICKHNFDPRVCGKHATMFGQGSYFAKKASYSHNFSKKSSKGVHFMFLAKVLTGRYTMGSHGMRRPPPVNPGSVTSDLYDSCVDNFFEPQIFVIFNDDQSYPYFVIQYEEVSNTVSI
In general terms: TR-FRET usually uses a lanthanide donor and a delayed reading to cut background.

In the case of `CO[C@H](C)[C@@H](COCCC(=O)N1CCN(c2ncc(C(F)(F)F)cn2)CC1)Nc1cn[nH]c(=O)c1C(F)(F)F` [Example 607, 5-[[(2R,3R)-3-Methoxy-1-(3-oxo-3-[4-[5-(trifluoromethyl)pyrimidin-2-yl]piperazin-1-yl]propoxy)butan-2-yl]amino]-4-(trifluoromethyl)-2,3-dihydropyridazin-3-one], the IC50 (usually the concentration needed to halve the response being measured) is less than 100 nM. To `C[C@@H](COCCC(=O)N1CCN(c2ncc(C(F)(F)F)cn2)CC1)Oc1cn[nH]c(=O)c1Br` [Example 608, 4-Bromo-5-[[(2S)-1-(3-oxo-3-[4-[5-(trifluoromethyl)pyrimidin-2-yl]piperazin-1-yl]propoxy)propan-2-yl]oxy]-2,3-dihydropyridazin-3-one] belongs less than 100 nM. Molecule `C[C@@H](COCCC(=O)N1CCN(c2ncc(Cl)cn2)CC1)Oc1cn[nH]c(=O)c1Br` [Example 609, 4-Bromo-5-[[(2S)-1-[3-[4-(5-chloropyrimidin-2-yl)piperazin-1-yl]-3-oxopropoxy]propan-2-yl]oxy]-2,3-dihydropyridazin-3-one] showed an IC50 of less than 100 nM. For `C[C@@H](O)[C@@H](COCCC(=O)N1CCN(c2ncc(C(F)(F)F)cn2)CC1)Nc1cn[nH]c(=O)c1C(F)(F)F` [Example 610, 5-[[(2R,3R)-3-Hydroxy-1-(3-oxo-3-[4-[5-(trifluoromethyl)pyrimidin-2-yl]piperazin-1-yl]propoxy)butan-2-yl]amino]-4-(trifluoromethyl)-2,3-dihydropyridazin-3-one] the value was less than 100 nM; for `C[C@H](O)[C@@H](COCCC(=O)N1CCN(c2ncc(C(F)(F)F)cn2)CC1)Nc1cn[nH]c(=O)c1C(F)(F)F` [Example 611, 5-[[(2R,3S)-3-Hydroxy-1-(3-oxo-3-[4-[5-(trifluoromethyl)pyrimidin-2-yl]piperazin-1-yl]propoxy)butan-2-yl]amino]-4-(trifluoromethyl)-2,3-dihydropyridazin-3-one], less than 100 nM.

For `C[C@@H](COCCC(=O)N1CCN(c2cnc(C(F)(F)F)cn2)CC1)Nc1cn[nH]c(=O)c1C(F)(F)F` [Example 613, (S)-5-((1-(3-Oxo-3-(4-(5-(trifluoromethyl)pyrazin-2-yl)piperazin-1-yl)propoxy)propan-2-yl)amino)-4-(trifluoromethyl)pyridazin-3(2H)-one], the concentration for half-maximal inhibition (IC50) was less than 100 nM. For `O=C(CCOC[C@H](Nc1cn[nH]c(=O)c1C(F)(F)F)[C@@H]1CCOC1)N1CCN(c2ncc(C(F)(F)F)cn2)CC1` [Example 614 Isomer D, 5-(((R)-2-(3-Oxo-3-(4-(5-(trifluoromethyl)pyrimidin-2-yl)piperazin-1-yl)propoxy)-1-((S)-tetrahydrofuran-3-yl)ethyl)amino)-4-(trifluoromethyl)pyridazin-3(2H)-one] the value was less than 100 nM; for `C[C@@H](CNCCC(=O)N1CCN(c2ncc(C(F)(F)F)cn2)CC1)Oc1cn[nH]c(=O)c1C(F)(F)F` [Example 615, (S)-5-((1-((3-Oxo-3-(4-(5-(trifluoromethyl)pyrimidin-2-yl)piperazin-1-yl)propyl)amino)propan-2-yl)oxy)-4-(trifluoromethyl)pyridazin-3(2H)-one], 100 to 1000 nM; for `C[C@@H](CN(C)CCC(=O)N1CCN(c2ncc(C(F)(F)F)cn2)CC1)Oc1cn[nH]c(=O)c1C(F)(F)F` [Example 616, (S)-5-((1-(Methyl(3-oxo-3-(4-(5-(trifluoromethyl)pyrimidin-2-yl)piperazin-1-yl)propyl)amino)propan-2-yl)oxy)-4-(trifluoromethyl)pyridazin-3(2H)-one], less than 100 nM. To `C[C@@H](COCCC(=O)N1CCN(c2ncc(C(F)(F)F)cn2)CC1)Sc1cn[nH]c(=O)c1C(F)(F)F` [Example 618, (S)-5-((1-(3-Oxo-3-(4-(5-(trifluoromethyl)pyrimidin-2-yl)piperazin-1-yl)propoxy)propan-2-yl)thio)-4-(trifluoromethyl)pyridazin-3(2H)-one] belongs less than 100 nM.
